Results reported in patent publication US11583538B2, “Substituted pyrrolo[1,2-a]pyrazines and pyrrolo[1,2-a][1,4]diazepines as TREX1 inhibitors” (Venenum Biodesign, LLC, priority 2019, dated 2023).

Columns and labels:
[1] = system: THP1 Dual cells, ISRE Lucia reporter gene, transfected with G3-YSD DNA; assay: Human Cellular EC50 Reporter Assay; assay type: cell-based; settings: 72 h, serum-starved cells transfected with G3-YSD 10 ng/ml, three days
Source text: Example E is a cell-based assay for TREX1 inhibitors using THP1 Dual™ cells (Invivogen), a human monocyte cell line that has stable integration of an Interferon Stimulated Response Element (ISRE) Lucia reporter gene. The Lucia gene encodes a secreted luciferase reporter protein, under the control of an ISG54 minimal promoter in conjunction with five IFN-stimulated response elements. Activation of the cGAS-STING pathway in THP1 Dual™ cells leads to enhanced luciferase secretion and increased luminescence.
A cell-based assay was established using THP1 Dual™ cells (InvivoGen), a human monocyte cell line that has stable integration of an Interferon Stimulated Response Element (ISRE) Lucia reporter gene. The Lucia gene encodes a secreted luciferase reporter protein, under the control of an ISG54 minimal promoter in conjunction with five IFN-stimulated response elements. Activation of the cGAS-STING pathway in these cells leads to enhanced luciferase secretion. Three days prior to the assay, cells were transferred to a T75 flask at a density of 3.0×10^5 cells/ml in 20 ml of serum-starved media (RPMI 1640 containing 1% Heat-Inactivated FBS, 1× Glutagro, 10 mM HEPES, 1 mM sodium pyruvate, 1×Pen/Strep, 100 μg/ml Normocin, 100 μg/ml Zeocin, 10 μg/ml Blasticidin). On the day of assay cells were collected by centrifugation, washed in 1×DPBS, and resuspended in the 1% serum media at 3.3×10^5 cells/ml. An aliquot of an aqueous solution of the DNA oligonucleotide G3-YSD (InvivoGen) at 1 mg/ml was diluted 100-fold into the transfection reagent LyoVec (InvivoGen) and incubated at ambient temperature for 50 min to allow complex formation. Test compounds in DMSO were transferred to a standard 96-well tissue culture plate via acoustic dispense of 0.54 μl per well. Serum-starved cells were batch transfected with complex at a final DNA concentration of 10 ng/ml for 60 min at ambient temperature before dispensing 180 ul (60,000 cells) per well into the assay plate. The assay plate was then incubated in a humidified chamber at 37° C. in 5% CO2 for three days. An aliquot of 10 μl was removed from each well to combine with 10 μl of the luciferase detection reagent, QUANTI-Luc™ Gold (InvivoGen) in a white 384-well plate. The luminescent signal was then read using an EnVision plate reader (Perkin Elmer). An EC50 for each compound was determined by plotting the signal as a function of log molar concentration and fitting to a four parameter logistic equation. (see Table 32).

human TREX1 = human TREX1 (Homo sapiens (Human), UniProt Q9NSU2); assay: TREX1 Exonuclease Assay; assay type: biochemical
Description: For human TREX1, the nucleotide sequence of the gene construct was codon optimized for expression in the bacterial host. The sequence was incorporated into the pMAL-c5e vector (NEB) downstream of a solubility-promoting MBP (maltose binding protein) fusion partner. The fusion protein product was expressed in E. coli strain BL21 (DE3) (Millipore) and purified in a series of chromatographic steps. Initial steps were conducted using a dextrin sepharose affinity column followed by a Q-sepharose ion exchange column (both GE Healthcare). After the second column the MBP partner was removed by incubation with enterokinase (NEB). Further purification was carried out with the second application of a Q-sepharose column followed by a Superdex 75 (GE Healthcare) size exclusion column. Finally, a heparin sepharose column (GE Healthcare) was applied to remove contaminating nucleotides.
To evaluate the effect of compounds on TREX1 activity, test compounds were serially diluted (11-point, 3-fold) from 10 mM stock solutions and delivered to 384-well low-volume assay plates in 80 nL DMSO using an acoustic dispenser. Next, 4 μL of human TREX1 (0.5 nM), or murine TREX1 (1 nM), diluted in assay buffer (20 mM Tris pH 7.5, 5 mM MgCl2, 100 μg/mL BSA, 0.002% Triton X-100, 2 mM DTT), was added to the assay plate. After incubating for 30 minutes, 4 μL of labeled DNA oligonucleotide (500 nM) in assay buffer was added to initiate TREX1 exonuclease activity. The reaction was allowed to proceed for 45 minutes at room temperature prior to the addition of 4 μL of 150 mM EDTA to halt TREX1 activity.

MB49-Luc tumor = MB49-Luc tumor bearing mice; assay type: in vivo, C57BL/6 mice; settings: 100 μg intra-tumoral Days 1, 3, 6, 9 plus 10 Gy radiation Day 0; by Day 20; vs vehicle alone, 10 Gy + vehicle, or Example 15B + vehicle
Source text: The efficacy of the TREX1 inhibitors of the present invention can also be measured in a variety of in vivo assays. Exemplary mammals that can provide models to test the effectiveness of the TREX1 inhibitors of the present invention as anticancer agents include, but are not limited to, mice. Models of tumor growth and other tumor measurements can be used to assess the effectiveness of the anticancer agents described in the current invention. Example F describes an in vivo model of tumor growth in C57BL/6 mice. Compounds of the present invention can be tested in this model for their ability to inhibit growth of tumors. Compounds of the present invention can be used in combinatorial strategies to maximizing the immunogenicity of radiation therapy (Vanpouille-Box (2017) Nature Commun. 8, 81658). […] Ten week old female C57BL/6 mice were purchased from Jackson Laboratory (www.jax.org). During the study, the care and use of animals was conducted in accordance with the regulations of the Association for Assessment and Accreditation of Laboratory 15 Animal Care (AAALAC). […] Tumors were measured in two dimensions using calipers. Tumor volumes were calculated using the formula: volume (mm3)=(length×width2)/2. […]

Sequence of human TREX1 (Q9NSU2 whole entry, the tested form may be a part): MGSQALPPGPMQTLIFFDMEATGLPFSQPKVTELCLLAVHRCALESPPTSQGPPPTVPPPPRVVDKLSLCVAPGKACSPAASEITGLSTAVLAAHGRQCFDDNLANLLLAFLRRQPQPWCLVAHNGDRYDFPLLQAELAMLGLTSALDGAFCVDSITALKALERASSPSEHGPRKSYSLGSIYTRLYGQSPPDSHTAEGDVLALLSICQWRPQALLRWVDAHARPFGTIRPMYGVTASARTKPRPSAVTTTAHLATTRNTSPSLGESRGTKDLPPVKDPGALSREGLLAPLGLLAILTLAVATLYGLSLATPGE

Q: Which EC50 [1] does the source give for N[C@@H]1C[C@H]2C(=O)N([C@H](CCc3nnn[nH]3)C(=O)NCc3ccc(Cl)c(Cl)c3F)CCC(CCc3ccccc3)N2C1 (some centres unmarked) [Example 120] here?
A: Its EC50 is 1 to 10 µM.

Q: What about the IC50 (human TREX1) of the same compound?
A: The IC50 was under 1 µM.

Q: For N[C@@H]1C[C@H]2C(=O)N([C@H](CCC(=O)O)C(=O)NCc3ccc(Cl)c(Cl)c3F)CCC(CCc3ccccc3)N2C1 (some centres unmarked) [Example 30], which EC50 [1] is on record?
A: Its EC50 is 1 to 10 µM.

Q: And the IC50 (human TREX1)?
A: The IC50 was under 1 µM.

Q: With N[C@@H]1C[C@H]2C(=O)N([C@H](CCC(=O)O)C(=O)NCc3ccc(Cl)c(Cl)c3)CCC(CCc3ccccc3)N2C1 (some centres unmarked) [Example 15B] as the compound, how does the Tumor volume (MB49-Luc tumor) read?
A: Its Tumor volume is “reduced tumor volumes”.
